The assay deals with Factor D (Homo sapiens (Human), UniProt P00746). Put plainly: Factor D esterolytic assay (Z-Lys-SBzl substrate, DTNB, 405 nm). It counts as biochemical. Particulars: Z-Lys-SBzl 1.29 mM, pH 7.5, 10% DMSO, tested a minimum of three times, read-out: Measured Ki (IC50) Value for Compounds: IC50. As for the experimental part: The IC50 value of a compound (i.e., the concentration of the compound that inhibits 50% of the enzymatic activity) was calculated according to the procedure reported in U.S. Pat. No. 6,653,340 B1, e.g., column 74 (incorporated by reference).
Chain of Factor D (P00746 26-253): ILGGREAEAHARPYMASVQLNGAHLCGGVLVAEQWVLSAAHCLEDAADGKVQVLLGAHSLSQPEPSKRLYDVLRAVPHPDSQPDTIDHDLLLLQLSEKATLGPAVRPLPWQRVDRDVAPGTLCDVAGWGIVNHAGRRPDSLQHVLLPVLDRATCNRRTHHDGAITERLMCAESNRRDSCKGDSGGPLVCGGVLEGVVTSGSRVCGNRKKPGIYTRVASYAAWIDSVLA
Specifically, the compounds were dissolved in a stock solution of DMSO at 10.0 or 100 mM. A portion of this stock solution was added to assay buffer in a final volume of 50 μL. Controls included buffer alone and enzyme solutions to which DMSO was added. Substrate was added to the reaction wells immediately or after incubation at room temperature. The reaction rates were measured spectrophotometrically by the generation of product at 405 nm for 600 sec. Background absorbance at 690 nm was measured and subtracted from the absorbance at 405 nm for each well.
The reaction rate for enzyme alone was compared to the rate of enzyme in the presence of inhibitor and the percent inhibition was calculated as shown below: Percent Inhibition=[Rate without inhibitor−Rate with inhibitor)/(Rate without inhibitor)]×100 Factor D Esterolytic Assay:
An established esterolytic assay for the measurement of Factor D activity and inhibition of Factor D activity was used (Kam, C. M.; McRae, B. J.; Harper, J. W.; Niemann, M. A.; Volanakis, J. E.; Powers, J. C. Human complement proteins D, C2, and B Active site mapping with peptide thioester substrates. J Biol. Chem. 1987, 262, 3444-3451). For this assay Z-Lys-SBzl, 1.29 mM (Kim, S.; Narayana, S. V. L; Volanakis, J. E. Mutational analysis of the substrate binding site of human complement Factor D. Biochemistry. 1994, 33, 14393-14399.) was used as the substrate for Factor D ([…]). Hydrolysis of this compound by Factor D liberated a free sulfhydryl group which is then reacted with 5,5′-dithiobis(2nitrobenzoic acid) producing an intense yellow color (Habeeb, A. F. S. A. Reaction of protein sulfhydryl groups with Ellman's Reagent. Methods in Enzymol. 1976, 25, 457-464). The assays were performed in 96 well microtiter plates and rates of hydrolysis were monitored at 405 nm on a Biotek Synergy H1 plate reader. Hydrolysis rates were reported as change in mOD/min. The assay was conducted in 100 mM HEPES, 500 mM NaCl, pH 7.5 containing 10% DMSO in a final volume of 50 μL per well.
An IC50, a compound concentration which inhibits 50% of the enzymatic activity, was calculated. Compounds in the examples were tested a minimum of three times.
As a reminder, the IC50 is the concentration at which inhibition is half-maximal. Take `NCc1cccc(-c2cc(NC(=O)[C@@H]3CCC[C@H]3C(=O)NCc3cccc(Cl)c3F)cc3ccoc23)c1` (relative stereo) [Compound 217e, (trans)-N1-(7-(3-(aminomethyl)phenyl)benzofuran-5-yl)-N2-(3-chloro-2-fluorobenzyl)cyclopentane-1,2-dicarboxamide]: the IC50 is under 1000 nM.
Consider `NCc1cccc(-c2cc(OC[C@@H]3CCC[C@H]3C(=O)NCc3cccc(Cl)c3F)cc3ccoc23)c1` (relative stereo) [Compound 340e, (trans)-2-(((7-(3-(aminomethyl)phenyl)benzofuran-5-yl)oxy)methyl)-N-(3-chloro-2-fluorobenzyl)cyclopentanecarboxamide], for which the IC50 was in the range of 1000 to 10000 nM.
With `NCc1cccc(-c2cc(C(=O)N[C@@H]3CCC[C@H]3C(=O)NCc3cccc(Cl)c3F)cc3ccoc23)c1` (relative stereo) [Compound 376e, 7-(3-(aminomethyl)phenyl)-N-((trans)-2-((3-chloro-2-fluorobenzyl)carbamoyl)cyclopentyl)benzofuran-5-carboxamide] the figure was under 1000 nM.
For `Cc1ccc(CC(=O)O)c(OCc2cc(-c3cccc(C(N)CF)c3)c3occc3c2)c1` (single isomer, unassigned; (+)) [Compound 269h, (+)-2-(2-((7-(3-(1-amino-2-fluoroethyl)phenyl)benzofuran-5-yl)methoxy)-4-methylphenyl)acetic acid], the IC50 is under 1000 nM.
For `COCc1cc2cc(COc3ccccc3CC(=O)O)cc(-c3cccc(C(N)CF)c3)c2o1` (single isomer, unassigned; (+)) [Compound 278e, (+)-2-(2-((7-(3-(1-amino-2-fluoroethyl)phenyl)-2-(methoxymethyl)benzofuran-5-yl)methoxy)phenyl)acetic acid], the IC50 was under 1000 nM.
Take `NC(CF)c1cc(-c2cc(COc3ccccc3CC(=O)O)cc3ccoc23)ccn1` (single isomer, unassigned; (+)) [Compound 327d, (+)-2-(2-((7-(2-(1-amino-2-fluoroethyl)pyridin-4-yl)benzofuran-5-yl)methoxy)phenyl)acetic acid]: the IC50 was under 1000 nM.
Then `NC(CF)c1cccc(-c2cc(COc3ccccc3CC(=O)O)cc3ccoc23)c1F` (single isomer, unassigned; (+)) [Compound 402f, (+)-2-(2-((7-(3-(1-amino-2-fluoroethyl)-2-fluorophenyl)benzofuran-5-yl)methoxy)phenyl)acetic acid], with under 1000 nM; and `NCc1ccc(CC(=O)O)c(OCc2cc(-c3cccc(C(N)CF)c3)c3occc3c2)c1` (single isomer, unassigned; (+)) [Compound 410d, (+)-2-(2-((7-(3-(1-amino-2-fluoroethyl)phenyl)benzofuran-5-yl)methoxy)-4-(aminomethyl)phenyl)acetic acid], with under 1000 nM; and `N#Cc1ccc(CC(=O)O)c(OCc2cc(-c3cccc(C(N)CF)c3)c3occc3c2)c1` (single isomer, unassigned; (+)) [Compound 412b, (+)-2-(2-((7-(3-(1-amino-2-fluoroethyl)phenyl)benzofuran-5-yl)methoxy)-4-cyanophenyl)acetic acid], with under 1000 nM.
On to `CC(=O)Nc1ccc(CC(=O)O)c(OCc2cc(-c3cccc(C(N)CF)c3)c3occc3c2)c1` (single isomer, unassigned; (+)) [Compound 434c, (+)-2-(4-acetamido-2-((7-(3-(1-amino-2-fluoroethyl)phenyl)benzofuran-5-yl)methoxy)phenyl)acetic acid], for which the IC50 was under 1000 nM.
Take `NC(=O)c1ccc(CC(=O)O)c(OCc2cc(-c3cccc(C(N)CF)c3)c3occc3c2)c1` (single isomer, unassigned; (+)) [Compound 436c, (+)-2-(2-((7-(3-(1-amino-2-fluoroethyl)phenyl)benzofuran-5-yl)methoxy)-4-carbamoylphenyl)acetic acid]: the IC50 is under 1000 nM.
As for `COCc1cc2cc(COc3cc(C)ccc3CC(=O)O)cc(-c3cccc(C(N)CF)c3)c2o1` (single isomer, unassigned; (+)) [Compound 455c, (+)-2-(2-((7-(3-(1-amino-2-fluoroethyl)phenyl)-2-(methoxymethyl)benzofuran-5-yl)methoxy)-4-methylphenyl)acetic acid], the IC50 is under 1000 nM.
For `NCc1cccc(-c2cc(COc3ccccc3CC(=O)O)cc3cc(C(N)c4ccccc4)oc23)c1` (single isomer, unassigned; (+)) [Compound 460d, (+)-2-(2-((2-(amino(phenyl)methyl)-7-(3-(aminomethyl)phenyl)benzofuran-5-yl)methoxy)phenyl)acetic acid], the IC50 was under 1000 nM.
In the case of `NC(CF)c1cc(-c2cc(COc3ccccc3CC(=O)O)cc3ccoc23)ccn1` (single isomer, unassigned; (-)) [Compound 326g, (−)-2-(2-((7-(2-(1-amino-2-fluoroethyl)pyridin-4-yl)benzofuran-5-yl)methoxy)phenyl)acetic acid], the IC50 lay in the range of 1000 to 10000 nM.
As for `CC(N)c1cc2cc(COc3ccccc3CC(=O)O)cc(-c3cccc(CN)c3)c2o1` (single isomer, unassigned; (-)) [Compound 442d, (−)-2-(2-((2-(1-aminoethyl)-7-(3-(aminomethyl)phenyl)benzofuran-5-yl)methoxy)phenyl)acetic acid], the IC50 is under 1000 nM.
With `NCc1cccc(-c2nc(C(=O)Nc3ccccc3CC(=O)O)c3cccn3n2)c1` [Compound 1h, 2-(2-(2-(3-(aminomethyl)phenyl)pyrrolo[2,1-f][1,2,4]triazine-4-carboxamido)phenyl)acetic acid] the figure was under 1000 nM; with `COC(=O)Cc1ccccc1NC(=O)c1nc(-c2cccc(CN)c2)nc2c1CCC2` [Compound 2e, methyl 2-(2-(2-(3-(aminomethyl)phenyl)-6,7-dihydro-5H-cyclopenta[d]pyrimidine-4-carboxamido)phenyl)acetate], over 10000 nM.
On to `NCc1cccc(-c2nc3c(c(C(=O)Nc4ccccc4CC(=O)O)n2)CCC3)c1` [Compound 2f, 2-(2-(2-(3-(aminomethyl)phenyl)-6,7-dihydro-5H-cyclopenta[d]pyrimidine-4-carboxamido)phenyl)acetic acid], for which the 50% inhibitory concentration (IC50) was under 1000 nM.
As for `NCc1cccc(-c2nc(C(=O)Nc3ccccc3CC(=O)O)nc3[nH]ccc23)c1` [Compound 3i, 2-(2-(4-(3-(aminomethyl)phenyl)-7H-pyrrolo[2,3-d]pyrimidine-2-carboxamido)phenyl)acetic acid], the IC50 was under 1000 nM.
`C[C@@H](N)c1cccc(-c2nc(C(=O)Nc3ccccc3CC(=O)O)c3cccn3n2)c1` [Compound 4e, (R)-2-(2-(2-(3-(1-aminoethyl)phenyl)pyrrolo[2,1-f][1,2,4]triazine-4-carboxamido)phenyl)acetic acid]: the IC50 was under 1000 nM.
Then `CCOC(=O)Cc1ccccc1NC(=O)c1nc(-c2cccc(CN)c2)c2cccn2n1` [Compound 5g, ethyl 2-(2-(4-(3-(aminomethyl)phenyl)pyrrolo[2,1-f][1,2,4]triazine-2-carboxamido)phenyl)acetate], with under 1000 nM; and `NCc1cccc(-c2cc(C(=O)Nc3ccccc3CC(=O)O)c3nccn3c2)c1` [Compound 6e, 2-(2-(6-(3-(aminomethyl)phenyl)imidazo[1,2-a]pyridine-8-carboxamido)phenyl)acetic acid], with 1000 to 10000 nM.
With `NCc1cccc(-c2cc(C(=O)Nc3ccccc3CC(=O)O)cc3[nH]ncc23)c1` [Compound 7d, 2-(2-(4-(3-(aminomethyl)phenyl)-1H-indazole-6-carboxamido)phenyl)acetic acid] the figure was under 1000 nM.
Turning to `NCc1cccc(-c2nc(COc3ccccc3CC(=O)O)nn3cccc23)c1` [Compound 8e, 2-(2-((4-(3-(aminomethyl)phenyl)pyrrolo[2,1-f][1,2,4]triazin-2-yl)methoxy)phenyl)acetic acid], the IC50 is under 1000 nM.
Then `NCc1cccc(-c2cc(C(=O)Nc3ccccc3CC(=O)O)cc3[nH]ccc23)c1` [Compound 9d, 2-(2-(4-(3-(aminomethyl)phenyl)-1H-indole-6-carboxamido)phenyl)acetic acid], with under 1000 nM; and `NCc1cccc(-c2cc(C(=O)Nc3ccccc3CC(=O)O)cc3c2cnn3CC2CC2)c1` [Compound 10d, 2-(2-(4-(3-(aminomethyl)phenyl)-1-(cyclopropylmethyl)-1H-indazole-6-carboxamido)phenyl)acetic acid], with under 1000 nM.

(Values after patent publication US11370774B2, “Substituted benzofuran, benzopyrrole, benzothiophene, and structurally related complement inhibitors” (BioCryst Pharmaceuticals, Inc., priority 2018, dated 2022).)
